Experiments:
[1] = tested on: MDA-MB-231; experiment: NCI antiproliferative SRB assay, Breast Cancer panel; assay type: cell-based; conditions: one dose 10 µM
[2] = tested on: SNB-75; experiment: NCI antiproliferative SRB assay, CNS Cancer panel; assay type: cell-based, Human; conditions: one dose 10 µM
[3] = tested on: 786–0; experiment: NCI antiproliferative SRB assay, Renal Cancer panel; assay type: cell-based, Human; conditions: one dose 10 µM
[4] = tested on: UACC-257; experiment: NCI antiproliferative SRB assay, Melanoma panel; assay type: cell-based, Human; conditions: one dose 10 µM
[5] = tested on: MCF7; experiment: NCI antiproliferative SRB assay, Breast Cancer panel; assay type: cell-based, Human; conditions: one dose 10 µM
[6] = tested on: TK-10; experiment: NCI antiproliferative SRB assay, Renal Cancer panel; assay type: cell-based, Human; conditions: one dose 10 µM
[7] = tested on: HOP-62; experiment: NCI antiproliferative SRB assay, Non-Small Cell Lung Cancer panel; assay type: cell-based, Human; conditions: one dose 10 µM
[8] = tested on: SF-295; experiment: NCI antiproliferative SRB assay, CNS Cancer panel; assay type: cell-based, Human; conditions: one dose 10 µM
[9] = tested on: SW-620; experiment: NCI antiproliferative SRB assay, Colon Cancer panel; assay type: cell-based, Human; conditions: one dose 10 µM
[10] = tested on: Melanoma cell line panel; experiment: NCI antiproliferative assay, panel summary; assay type: cell-based, Human; conditions: 10 µM
[11] = tested on: K-562; experiment: NCI antiproliferative SRB assay, Leukemia panel; assay type: cell-based, Human; conditions: one dose 10 µM
[12] = tested on: UACC-62; experiment: NCI antiproliferative SRB assay, Melanoma panel; assay type: cell-based, Human; conditions: one dose 10 µM
[13] = tested on: DU-145; experiment: NCI antiproliferative SRB assay, Prostate Cancer panel; assay type: cell-based, Human; conditions: one dose 10 µM
[14] = tested on: HL-60(TB); experiment: cells; assay type: cell-based; conditions: one dose 10 µM
[15] = tested on: SK-OV-3; experiment: NCI antiproliferative SRB assay, Ovarian Cancer panel; assay type: cell-based, Human; conditions: one dose 10 µM
[16] = tested on: HT29; experiment: NCI antiproliferative SRB assay, Colon Cancer panel; assay type: cell-based, Human; conditions: one dose 10 µM
[17] = tested on: KM12; experiment: as above; assay type: cell-based, Human; conditions: one dose 10 µM
[18] = tested on: 60 NCI cancer cell lines; experiment: NCI antiproliferative assay, summary over all lines; assay type: cell-based; conditions: mean over cell lines; one dose 10 µM
[19] = tested on: Ovarian Cancer cell line panel; experiment: NCI antiproliferative assay, panel summary; assay type: cell-based, Human; conditions: 10 µM
[20] = tested on: MDA-MB-435; experiment: NCI antiproliferative SRB assay, Melanoma panel; assay type: cell-based; conditions: one dose 10 µM
[21] = tested on: SF-539; experiment: NCI antiproliferative SRB assay, CNS Cancer panel; assay type: cell-based, Human; conditions: one dose 10 µM
[22] = tested on: CAKI-1; experiment: NCI antiproliferative SRB assay, Renal Cancer panel; assay type: cell-based, Human; conditions: one dose 10 µM
[23] = tested on: SNB-19; experiment: NCI antiproliferative SRB assay, CNS Cancer panel; assay type: cell-based, Human; conditions: one dose 10 µM
[24] = tested on: OVCAR-8; experiment: NCI antiproliferative SRB assay, Ovarian Cancer panel; assay type: cell-based, Human; conditions: one dose 10 µM
[25] = tested on: Prostate Cancer cell line panel; experiment: NCI antiproliferative assay, panel summary; assay type: cell-based, Human; conditions: 10 µM
[26] = tested on: NCI-H522; experiment: NCI antiproliferative SRB assay, Non-Small Cell Lung Cancer panel; assay type: cell-based, Human; conditions: one dose 10 µM
[27] = tested on: SN 12C; experiment: NCI antiproliferative SRB assay, Renal Cancer panel; assay type: cell-based, Human; conditions: one dose 10 µM
[28] = tested on: NCI-H322M; experiment: NCI antiproliferative SRB assay, Non-Small Cell Lung Cancer panel; assay type: cell-based, Human; conditions: one dose 10 µM
[29] = tested on: ACHN; experiment: NCI antiproliferative SRB assay, Renal Cancer panel; assay type: cell-based, Human; conditions: one dose 10 µM
[30] = tested on: Breast Cancer cell line panel; experiment: NCI antiproliferative assay, panel summary; assay type: cell-based, Human; conditions: 10 µM
[31] = tested on: Non-Small Cell Lung Cancer cell line panel; experiment: NCI antiproliferative assay, panel summary; assay type: cell-based, Human; conditions: 10 µM

## COc1ccc(/C=C/c2cc(/C=C/c3ccc(OC)c(O)c3)n(-c3cccc(Cl)c3)c(=S)n2)cc1O [3a]
[1]
  %GI: 31.75%
  GP (growth percent): 68.25
[2]
  %GI: 19.22%
  GP (growth percent): 80.78
[3]
  %GI: 5.38%
  GP (growth percent): 94.62
[4]
  %GI: 47.09%
  GP (growth percent): 52.91
[5]
  %GI: 32.09%
  GP (growth percent): 67.91
[6]
  %GI: −12.60%
  GP (growth percent): 112.60
[7]
  %GI: 4.94%
  GP (growth percent): 95.06
[8]
  %GI: −9.94%
  GP (growth percent): 109.94
[9]
  %GI: 10.52%
  GP (growth percent): 89.48
[10]
  Mean % GI: 17.21%
[11]
  %GI: 40.77%
  GP (growth percent): 59.23
[12]
  %GI: 17.81%
  GP (growth percent): 82.19
[13]
  %GI: 19.16%
  GP (growth percent): 80.84
[14]
  %GI: 16.52%
  GP (growth percent): 83.48
[15]
  %GI: −0.88%
  GP (growth percent): 100.88
[16]
  %GI: 53.43%
  GP (growth percent): 46.57
[17]
  %GI: 19.67%
  GP (growth percent): 80.33
[18]
  Mean % GI: 17.68%
  Mean GP: 82.32
[19]
  Mean % GI: 7.04%
[20]
  %GI: 18.68%
  GP (growth percent): 81.32
[21]
  %GI: 6.89%
  GP (growth percent): 93.11
[22]
  %GI: 20.96%
  GP (growth percent): 79.04
[23]
  %GI: 15.45%
  GP (growth percent): 84.55
[24]
  %GI: 28.57%
  GP (growth percent): 71.43
[25]
  Mean % GI: 14.98%
[26]
  %GI: 62.11%
  GP (growth percent): 37.89
[27]
  %GI: 7.39%
  GP (growth percent): 92.61
[28]
  %GI: 8.07%
  GP (growth percent): 91.93
[29]
  %GI: 4.99%
  GP (growth percent): 95.01
[30]
  Mean % GI: 26.56%
[31]
  Mean % GI: 17.22%
